According to patent publication US8436187B2, “1-heterocyclylsulfonyl, 3-aminomethyl, 5- (hetero-) aryl substituted 1-H-pyrrole derivatives as acid secretion inhibitors” (Takeda Pharmaceutical Company Limited, priority 2005, dated 2013):

Key:
[1] = biological target: T1, proton, potassium-adenosine triphosphatase (H+,K+-ATPase) (Sus scrofa, UniProt P19156); assay: H+,K+-ATPase inhibitory activity test; format: biochemical; conditions: swine gastric mucous membrane microsomal fraction; pH 6.5, 37° C.
T1 construct: The obtained microsomal fraction was used as a proton, potassium—adenosine triphosphatase standard product; from tissue; host or cells: swine stomach, gastric mucous membrane microsomal fraction
Experimental: According to the method [Biochim. Biophys. Acta, 728, 31 (1983)] of Wallmark et al., a gastric mucous membrane microsomal fraction was prepared from the stomach of swine. First, the stomach was removed, washed with tap water, immersed in 3 mol/L brine, and the surface of the mucous membrane was wiped with a paper towel. The gastric mucous membrane was detached, chopped, and homogenized in a 0.25 mol/L saccharose solution (pH 6.8) containing 1 mmol/L EDTA and 10 mmol/L tris-hydrochloric acid using polytron (Kinematica). The obtained homogenate was centrifuged at 20,000×g for 30 min and the supernatant was centrifuged at 100,000×g for 90 min. The precipitate was suspended in 0.25 mol/L saccharose solution, superimposed on a 0.25 mol/L saccharose solution containing 7.5% Ficoll, and centrifuged at 100,000×g for 5 hr. […]
To 40 μL of a 50 mmol/L HEPES-tris buffer (5 mmol/L magnesium chloride, 10 mmol/L potassium chloride, 10 […], pH=6.5) containing 2.5 μg/mL (based on the protein concentration) of the enzyme standard product was added a test compound (5 μL) dissolved in a 10% aqueous dimethyl sulfoxide solution, and the mixture was incubated at 37° C. for 30 min. […] After allowing to stand at room temperature for 15 min, the resulting reaction product of inorganic phosphorus with malachite green was colorimetrically determined at a wavelength of 610 nm. […]

[2] = tested on: Human liver cancer-derived cell line HepG2; assay: intracellular ATP content in HepG2 cells (ATPLite); format: cell-based; conditions: HepG2, culture for one day, relative value to control (without drug), n≧3, average
Experimental: Human liver cancer-derived cell line HepG2 (ATCC No. HB-8065) was passaged using Dulbecco's Modified Eagle medium (DMEM; Invitrogen) containing 10% fetal bovine serum (FBS; TRACE SCIENTIFIC LTD.), 1 mmol/L sodium pyruvate (Invitrogen), 2 mmol/L L-glutamine (Invitrogen), 50 IU/mL penicillin (Invitrogen) and 50 μg/mL streptomycin (Invitrogen) at 5% CO2. 37° C. The test reagent was prepared with DMSO to 10 mM, and further diluted with DMEM medium containing 0.5% FBS, 1 mmol/L sodium pyruvate, 2 mmol/L L-glutamine, 50 IU/mL penicillin and 50 μg/mL streptomycin to a final concentration of DMSO of 0.1%. HepG2 (2×10^4 cells/well) was cultured on a 96 well white plate (Costar) with the test reagent at 5% CO2, 37° C. After culture for one day, the intracellular ATP content was measured using ATPLite™ (PerkinElmer Life Sciences). The results are shown in Table 24 (n≧3, average value±SD) as a relative value (%) to control (without addition of drug) at 30 μM.

T1 sequence (P19156 2-1034 limits assumed): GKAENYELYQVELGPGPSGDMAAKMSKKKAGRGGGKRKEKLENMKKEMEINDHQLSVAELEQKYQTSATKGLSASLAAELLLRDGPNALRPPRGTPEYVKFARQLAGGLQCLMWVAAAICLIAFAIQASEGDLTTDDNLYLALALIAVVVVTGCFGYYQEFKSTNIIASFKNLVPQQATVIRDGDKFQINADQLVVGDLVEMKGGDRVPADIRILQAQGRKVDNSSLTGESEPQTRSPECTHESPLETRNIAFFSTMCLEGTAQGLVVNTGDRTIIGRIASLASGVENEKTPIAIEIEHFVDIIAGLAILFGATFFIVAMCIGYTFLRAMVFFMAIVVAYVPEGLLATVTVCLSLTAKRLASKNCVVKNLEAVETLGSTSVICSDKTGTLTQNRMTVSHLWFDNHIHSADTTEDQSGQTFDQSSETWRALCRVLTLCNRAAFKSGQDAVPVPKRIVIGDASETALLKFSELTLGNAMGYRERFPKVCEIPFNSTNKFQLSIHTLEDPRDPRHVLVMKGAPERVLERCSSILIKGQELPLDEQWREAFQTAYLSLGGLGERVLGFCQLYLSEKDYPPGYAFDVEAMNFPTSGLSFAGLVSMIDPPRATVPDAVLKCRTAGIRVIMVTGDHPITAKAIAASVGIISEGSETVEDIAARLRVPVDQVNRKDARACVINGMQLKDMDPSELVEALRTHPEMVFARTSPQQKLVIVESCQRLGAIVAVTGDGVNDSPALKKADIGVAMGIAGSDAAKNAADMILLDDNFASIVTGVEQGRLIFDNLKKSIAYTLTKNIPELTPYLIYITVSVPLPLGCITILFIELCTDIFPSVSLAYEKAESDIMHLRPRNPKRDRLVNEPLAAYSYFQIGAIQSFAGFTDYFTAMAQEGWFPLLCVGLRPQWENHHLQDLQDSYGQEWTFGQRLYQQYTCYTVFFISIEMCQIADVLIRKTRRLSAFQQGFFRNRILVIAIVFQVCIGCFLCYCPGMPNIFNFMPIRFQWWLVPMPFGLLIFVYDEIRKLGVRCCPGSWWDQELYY
T1 sequence (P18434 whole entry partner): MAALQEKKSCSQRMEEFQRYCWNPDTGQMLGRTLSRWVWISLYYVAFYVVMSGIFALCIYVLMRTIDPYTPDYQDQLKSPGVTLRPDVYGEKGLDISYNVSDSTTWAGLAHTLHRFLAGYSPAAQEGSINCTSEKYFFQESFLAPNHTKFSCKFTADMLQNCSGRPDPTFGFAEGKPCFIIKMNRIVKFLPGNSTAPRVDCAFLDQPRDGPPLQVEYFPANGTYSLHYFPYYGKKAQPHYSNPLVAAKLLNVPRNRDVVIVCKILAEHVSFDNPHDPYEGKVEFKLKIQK

Row | IC50 [1] | ATP content (%, 30 μM) [2] | SMILES
1 | 34 nM | 76.5% | CNCc1cc(-c2ccccc2)n(S(=O)(=O)c2ccc(C)nc2)c1.Cl.Cl [Example 24, N-methyl-1-{1-[(6-methylpyridin-3-yl)sulfonyl]-5-phenyl-1H-pyrrol-3-yl}methanamine dihydrochloride]
2 | 8.9 nM | 53.6% | CNCc1cc(-c2ccc(Cl)cc2F)n(S(=O)(=O)c2cccnc2)c1.Cl.Cl [Example 34, 1-[5-(4-chloro-2-fluorophenyl)-1-(pyridin-3-ylsulfonyl)-1H-pyrrol-3-yl]-N-methylmethanamine dihydrochloride]
